Tests used:
[1] = test system: osteoclast (TRAP-positive multinuclear cell) formation; experiment: Inhibitory effect on osteoclast formation (TRAP staining); format: cell-based, mice; conditions: 8 days culture with M-CSF and RANKL, compared to control
Description: The inhibitory activities of the alpha-arylmethoxyacrylate derivatives prepared in the above Examples on the proliferation of osteoclasts were examined as follows.
First, a bone marrow sample containing osteoclast pregenitor cells was isolated as follows. After sacrificing 7 to 9 week-old female mice by cervical dislocation, femur and tibia were excised aseptically while removing soft tissues attached thereto, After cutting both ends of the long bones, 1 ml of an enzyme solution containing 0.1% collagenase (Gibco), 0.05% trypsin and 0.5 mM EDTA (Gibco) was injected into the bone marrow cavity at one end using a syringe with a 26-gauge needle, and the bone marrow was then collected. After stirring the recovered bone marrow for 30 min, the precipitated bone marrow cells were collected, and cultured in α-minimum essential medium (α-MEM) supplemented with 10% FBS for 24 hrs. Then, non-adherent cells, which are osteoclast pregenitors, were aliquoted onto a culture plate at a density of 2×10^5 cells per well, and cultured for 8 days in α-MEM supplemented with 20 ng/ml of macrophage-colony stimulating factor (M-CSF, Peprotech, USA), 30 ng/ml RANKL (Peprotech, USA), and 0.3, 1.0 or 3 μM of the compounds of the Examples. Control cells were cultured at the same condition except not adding the compounds of the Examples.
After cell culture for 8 days, the adherent cells were washed with PBS and fixed with citrate-acetate-formaldehyde for 5 min. The fixed cells were incubated at 37° C. for 1 hr in acetate buffer (pH 5.0) containing naphthol AS-BI phosphate, fast Garnet GBC solution and 7 mM tartrate buffer (pH 5.0) to conduct TRAP (tartrate-resistant acid phosphatase) staining.

[2] = test system: osteoclasts; experiment: Inhibitory effect on resorption activity of osteoclast (resorption pit area on calcium phosphate-coated plate); format: cell-based, mice; conditions: compared to control
Description: After finishing culture, the plate was washed with distilled water, and 50 μl/well of 5% sodium hypochlorite was added to the plate. The plate was let alone for 5 min, washed again with distilled water to remove the adherent cells, and dried at room temperature. Then, the area of formed resorption pits was calculated by means of Image Pro Plus software (Media Cybernetics Ver. 3.0).

[3] = test system: MG-63 cells; experiment: Cytotoxicity test against osteoblast (MTT); format: cell-based, human
Description: (§1) In order examine the toxicities of the compounds of the Examples against osteoclast pregenitors, pregenitor cells were aliquotted onto a 96-well microplate at a density of 2×10^5 cells per well, treated with 2, 4 and 8 μM of the test compounds, respectively, and cultured for 48 hrs in α-MEM supplemented with 20 ng/ml of M-CSF (Peprotech, USA) using 37° C. incubator (5% CO2). At 3 hrs before the culture was finished, 50 μl of MTT (3-(4,5-dimethylthiazol-2-yl)-2,5-diphenyltetrazolium bromide) solution (50 μg/ml) was added to each well. Upon completion of the cell culture, the supernatant was removed, and the precipitated dye was reacted with 100 μl of isopropanol/0.04 N HCl at room temperature for 30 min to dissolve it. The absorbances of the wells were measured at 550 nm, and the relative absorbance of each well relative to that of the control (set as 100) is shown in Table 6.
In order to examine the toxicity of the compounds of the Examples against osteoblasts, human osteosarcoma-derived cell line, MG-63 (ATCC No. CRL-1427) cells were treated with 0.1, 0.3, 1.0 and 3.0 μM of the compounds of the Examples, and cultured in DMEM supplemented with 10% FBS (fetal bovine serum).

[4] = test system: osteoclast pregenitor cells; experiment: Cytotoxicity against osteoclast pregenitor (MTT); format: cell-based, mice; conditions: 48 hrs, absorbance at 550 nm
Description: as §1

| Structure (SMILES) | Osteoclast formation inhibitory effects (%) ([1]; 0.3 μM) | Osteoclast formation inhibitory effects (%) ([1]; 1.0 μM) | Osteoclast formation inhibitory effects (%) ([1]; 3.0 μM) | Reduction (%) of the resorption pit area of osteoclasts ([2]; 0.3 uM) [%] | Reduction (%) of the resorption pit area of osteoclasts ([2]; 1 uM) [%] | Reduction (%) of the resorption pit area of osteoclasts ([2]; 3 uM) [%] | relative absorbance relative to that of the control (set as 100), MTT ([3]; 0.11 uM) | relative absorbance relative to that of the control (set as 100), MTT ([3]; 0.33 uM) | relative absorbance relative to that of the control (set as 100), MTT ([3]; 1 uM) | relative absorbance relative to that of the control (set as 100), MTT ([3]; 3 uM) | relative absorbance relative to that of the control (set as 100), MTT ([4]; 2 uM) | relative absorbance relative to that of the control (set as 100), MTT ([4]; 4 uM) | relative absorbance relative to that of the control (set as 100), MTT ([4]; 8 uM) |
| --- | --- | --- | --- | --- | --- | --- | --- | --- | --- | --- | --- | --- | --- |
| C=CCCCCCCOc1cccc(OCc2ccccc2/C(=C\OC)C(=O)OC)c1 [compound 197] | 100 | 100 | 100 | 100 | 100 | 100 | 112 | 101 | 111 | 103 | – | – | – |
| CO/C=C(/C(=O)OC)c1ccccc1COc1cccc(C(OC)OC)c1 [compound 133] | 16 | 95 | 100 | 75 | 99 | 100 | 103 | 108 | 107 | 103 | 93 | 104 | 102 |
| CO/C=C(/C(=O)OC)c1ccccc1CON=C(C)c1cccc(OCCN2CCOCC2)c1 [compound 20] | 12 | 34 | 100 | – | 26 | 47 | – | 106 | 106 | 105 | – | – | – |
| CO/C=C(/C(=O)OC)c1ccccc1COc1cccc(OCC=C(C)C)c1 [compound 217] | 94 | 100 | 100 | – | 100 | 100 | – | – | – | – | 90 | 96 | 107 |
| CCCCCCOc1ccc(OCc2cc(Cl)ccc2/C(=C\OC)C(=O)OC)cc1 [compound 271] | 94 | 100 | 100 | 30 | 94 | 42 | – | 114 | 79 | 64 | – | – | – |
| CCCCCCOc1cccc(OCc2ccccc2/C(=C\OC)C(=O)OC)c1 [compound 220] | 100 | 100 | 100 | 42 | 70 | 73 | – | – | – | – | 89 | 98 | 96 |
| CO/C=C(/C(=O)OC)c1ccccc1COc1cccc(OCC(C)C)c1 [compound 219] | 99 | 100 | 100 | – | 88 | 100 | – | – | – | – | 90 | 100 | 99 |
| CO/C=C(/C(=O)OC)c1ccccc1COc1cccc(OCC2CC2)c1 [compound 215] | 51 | 100 | 100 | 97 | 100 | 100 | – | – | – | – | 96 | 102 | 107 |
| CO/C=C(/C(=O)OC)c1ccccc1COc1cccc(OC2CCCC2)c1 [compound 222] | 69 | 100 | 100 | 100.0 | 100 | 100 | – | – | – | – | 97 | 108 | 101 |
| CO/C=C(/C(=O)OC)c1ccc(Cl)cc1COc1ccc(OCC=C(C)C)cc1 [compound 269] | 97 | 100 | 100 | 100 | 100 | 100 | – | 81 | 94 | 88 | – | – | – |
| CO/C=C(/C(=O)OC)c1ccccc1COc1cccc(C(F)CC(C)(F)F)c1 (stereo not shown) [compound 205] | 90 | 100 | 100 | – | 100 | 100 | – | – | – | – | 101 | 109 | 104 |
| CCC(C)Oc1ccc(OCc2cc(F)ccc2/C(=C\OC)C(=O)OC)cc1 (stereo not shown) [compound 319] | 82 | 100 | 100 | 0 | 100 | 100 | – | – | – | – | – | – | – |
| CCC(C)Oc1cccc(OCc2ccccc2/C(=C\OC)C(=O)OC)c1 (stereo not shown) [compound 221] | 39 | 100 | 100 | 94 | 100 | 100 | – | – | – | – | 96 | 96 | 99 |
| CO/C=C(/C(=O)OC)c1ccccc1COc1cccc(C(F)CC(C)=O)c1 (stereo not shown) [compound 206] | 35 | 100 | 100 | 97 | 100 | 100 | – | – | – | – | 102 | 102 | 108 |

From patent publication US7879835B2 (Korea Research Institute of Chemical Technology, priority 2004, dated 2011)
